Where a name gives a salt, the structure may show the parent alone.
Molecular target: T1, h5-HT5A receptor (Homo sapiens, UniProt P47898)
T1 construct: expressed in transfected cells; host or cells: HEK293
Assay: [3H]5-CT binding assay h5-HT5A
Conditions: membranes from HEK293 cells expressing h5-HT5A, 2.5 nM [3H]5-CT; read-out: Binding affinity 5-HT5A (Ki)
Experimental: 1. [^3H]5-CT binding assay h5-HT5A
Membranes from HEK293-cells, which permanently express the h5-HT5A receptor gene, were incubated in 100 mM Tris-HCl-buffer (pH 7.7), containing 1 mM EDTA in the presence of 2.5 nM [^3H]5-CT (600 μl total volume). The total binding is defined as the binding which is observed when the membranes are incubated alone in the presence of the radioligand. The inhibition induced by the compound is determined by incubation of cell membranes in the presence of the radioligand, and of different concentrations of the compound of interest. Unspecific binding is defined by the binding of [^3H]5-CT, which is obtained by incubation of the membranes as for the total binding but in the presence of 10 μM methiothepine. Following an incubation of 75 minutes at 30° C. the membrane suspension is filtered through GF/B-filters, wrapped in 0.03% PEI, wherein a Skatron® harvest system is used. The radioactivity retained in the filter is quantified by liquid scintillation counting.
In both assays, different concentrations of the test substances are used, and the Ki or the IC50 values are determined.

T1 sequence (P47898 whole entry): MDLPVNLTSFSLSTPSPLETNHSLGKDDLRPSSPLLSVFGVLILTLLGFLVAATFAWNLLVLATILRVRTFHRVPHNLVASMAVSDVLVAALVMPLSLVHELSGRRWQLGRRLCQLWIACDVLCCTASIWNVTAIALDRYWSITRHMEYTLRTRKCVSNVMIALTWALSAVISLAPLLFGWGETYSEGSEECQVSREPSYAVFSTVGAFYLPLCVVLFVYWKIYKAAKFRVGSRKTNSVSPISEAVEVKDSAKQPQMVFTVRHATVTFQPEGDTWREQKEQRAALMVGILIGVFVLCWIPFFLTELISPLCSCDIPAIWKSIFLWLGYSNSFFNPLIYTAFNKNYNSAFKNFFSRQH

Structure (SMILES)	Ki [nM]
COc1cccc(OC)c1CNC(=N)Nc1nc(C2CCCN2S(=O)(=O)c2ccccc2)cs1 (stereo not drawn) [Example 150, N-(2,6-dimethoxybenzyl)-N′-{4-[1-(phenylsulfonyl)pyrrolidine-2-yl]-1,3-thiazole-2-yl}guanidine]	< 50
COc1ccccc1CNC(=N)Nc1nnc(C)[nH]1 [Example 185, N-(2-methoxybenzyl)-N′-(5-methyl-4H-1,2,4-triazole-3-yl)guanidine acetate]	> 500
COc1ccc(C(F)(F)F)cc1CNC(=N)Nc1nc(-c2ccccc2)cs1 [Example 221, N-[2-methoxy-5-(trifluoromethyl)benzyl]-N′-(4-phenyl-1,3-thiazole-2-yl)guanidine]	> 500
COc1cccc(OC)c1CNC(=N)Nc1nc(C2CCCCC2)cs1 [Example 97, N-(4-cyclohexyl-1,3-thiazole-2-yl)-N′-(2,6-dimethoxybenzyl)guanidine]	< 50
COc1cccc(OC)c1CNC(=N)Nc1nc(CN)cs1 [Example 154, N-[4-(aminomethyl)-1,3-thiazole-2-yl]-N′-(2,6-dimethoxybenzyl)guanidine hydrochloride]	< 50
COc1ccccc1CNC(=N)Nc1nnc[nH]1 [Example 184, N-(2-methoxybenzyl)-N′-4H-1,2,4-triazole-3-ylguanidine acetate]	> 500
COc1cccc(OC)c1CNC(=N)Nc1nc(-c2cc(-c3ccccc3)no2)cs1 [Example 83, N-(2,6-dimethoxybenzyl)-N′-[4-(3-phenylisoxazole-5-yl)-1,3-thiazole-2-yl]guanidine hydrobromide]	< 50
COc1ccccc1CNC(=N)Nc1nc(N2CCCCC2)cs1 [Example 166, 1-[2-({imino[(2-methoxybenzyl)amino]methyl}amino)-1,3-thiazole-4(5H)-ylidene]piperidinium chloride]	> 500
COc1cccc(C)c1CNC(=N)Nc1nc(-c2ncccn2)cs1 [Example 139, N-(2-methoxy-6-methylbenzyl)-N′-(4-pyrimidine-2-yl-1,3-thiazole-2-yl)guanidine]	< 50
COc1ccccc1CNC(=N)Nc1nc(-c2ccc(F)cc2)co1 [Example 198, N-[4-(4-fluorophenyl)-1,3-oxazole-2-yl]-N′-(2-methoxybenzyl)guanidine]	< 50
COc1cccc(OC)c1CNC(=N)Nc1nc(-c2ccccc2)ns1 [Example 105, N′-(2,6-dimethoxybenzyl)-N-(3-phenyl-1,2,4-thiadiazole-5-yl)guanidine×0.5 (2E)-But-2-endioate]	> 500
N=C(NCc1ccccc1C(F)(F)F)Nc1nccs1 [Example 18, N-1,3-thiazole-2-yl-N′[2-(trifluoromethyl)benzyl]guanidine]	> 500

Results, then the compound that gave them:

Ki [nM]	Structure (SMILES)
< 50	COc1cccc(OC)c1CNC(=N)Nc1nnc(C)[nH]1 [Example 181, N-(2,6-dimethoxybenzyl)-N′-(5-methyl-4H-1,2,4-triazole-3-yl)guanidine]
< 50	COc1cccc(OC)c1CNC(=N)Nc1nc2ccccc2[nH]1 [Example 182, N-1H-benzimidazole-2-yl-N′-(2,6-dimethoxybenzyl)guanidine diacetate]
< 50	COc1cccc(-c2csc(NC(=N)NCc3c(OC)cccc3OC)n2)c1 [Example 61, N-(2,6-dimethoxybenzyl)-N′-[4-(3-methoxyphenyl)-1,3-thiazole-2-yl]guanidine]
< 50	COc1cccc(OC)c1CNC(=N)Nc1nc(-c2cccs2)cs1 [Example 90, N-(2,6-dimethoxybenzyl)-N′-[4-(2-thienyl)-1,3-thiazole-2-yl]guanidine hydrobromide]
50 to 500	COc1cccc(OC)c1CNC(=N)Nc1nnc(-c2ccccc2)s1 [Example 176, N-(2,6-dimethoxybenzyl)-N′-(5-phenyl-1,3,4-thiadiazole-2-yl)guanidine]
50 to 500	COc1ccccc1CNC(=N)Nc1nc(-c2ccc3c(c2)OCO3)cs1 [Example 101, N-[4-(1,3-benzodioxol-5-yl)-1,3-thiazole-2-yl]-N′-(2-methoxybenzyl)guanidine]

— US8481576B2 (Abbott GmbH & Co. KG, priority 2004, dated 2013)
